Reference: patent US8552064B2, “Suramin and derivatives thereof as topical microbicide and contraceptive” (Eastern Virginia Medical School, priority 2005, dated 2013)
Converted amounts (≈) assume the structure as drawn. Like-named read-outs stand apart in the source and are kept apart here.

Columns and labels:
HIV-1 IIIB = test: Virus binding inhibition assay VBIA-IIIB in MT-2 cells; assay type: cell-based
Procedure: VBIAIIIB: MT-2 cells, compounds and virus (HIV-1 IIIB) were mixed together in 96-well plates and incubated for 2 h at 37° C. At the end of this incubation period, the 96-well plates were centrifuged for 10 minutes and approximately 175 μL of medium was removed using a multichannel pipettor and replaced with 175 μL of fresh media. […] Modulation of virus induced cytopathic effects was measured by determining percent reduction in optical density (O.D.) using an XTT (2,3-bis(2-methoxy-4-nitro-5-sulfophenyl)-5-[phenylamino)carbonyl]-2H-tetrazolium hydroxide) dye reduction assay. Virus-induced cytopathic effects and mechanical artifacts due to media removal were verified by microscopic observations (Anderson R. A., et al., J. Androl., 21: 862-875 (2000)). The results of this assay are provided herein.

[1] = system: HIV-1 transmission from H9-SK1 cells to ME-180 cervical epithelial cells; test: ME-180-based topical microbicide assay (CD4-independent epithelial cell transmission)
Procedure: ME-180 cervical epithelial cells were plated in the interior wells of a 96-well flat bottom microtiter plate at a density of 5×10^3 cells per well and incubated overnight. Chronically infected H9 cells (H9-SK1) were treated with 200 μg/ml mitomycin C (Sigma) in complete medium for one hour, washed extensively and resuspended at 4×10^5 per ml. […] Antiviral compounds and chronically infected cells (2×10^4 cells) were added to each well containing ME-180 cells and incubated for 6 hours. Following co-cultivation, the monolayer was washed extensively and fresh medium was added. Medium was removed and fresh medium was added at 24 and 48 hours post-infection to remove dead lymphocytes. On day 6 post-infection, supernatant samples were removed and analyzed for virus content by p24 ELISA (Phillips D M et al., 1995, J Virol Methods, March, 52 (1-2): 1-13).

[2] = system: HIV-1 Ba-L in monocyte-derived dendritic cells; test: Infection of T cells by HIV associated to dendritic cells (DC/T assay); assay type: cell-based; conditions: for EC50: Human immunodeficiency virus 1, Dendritic cell
Procedure: Monocyte-derived dendritic cells (MO-DC), infected with the NSI/R5 strain Ba-L at 10-3 multiplicity of infection, were cultured alone or with autologous CD4(+) T cells at a ratio 1:1 or 1:10. A dilution series of suramin was added to the MO-DC, 1 hour prior to infection and remained present during infection. After infection, cells were extensively washed and compounds were added at the same concentrations as for the pre-incubation. Medium and compounds were refreshed twice a week. After 2 weeks, HIV Ag was measured in supernatants with ELISA and EC50 values (effective conc. 50%) were calculated using linear regression (Vanham G et al, AIDS 2000, 14: 2299-2311). The results of this assay are provided herein.

HIV-1 clinical isolates = test: Clinical isolates in PBMC assay; assay type: cell-based
Procedure: Peripheral blood mononuclear cells (PBMCs) were obtained from normal hepatitis and HIV-1 negative donors by ficoll hypaque gradient separation. Briefly, anti-coagulated blood is diluted 1:1 with Dulbecco's phosphate buffered saline without Ca^++ and Mg^++ (PBS) and layered over 14 mL of Lymphocyte separation media in a 50 ml centrifuge tube. Tubes were then centrifuged for 30 minutes at 600×g. Banded PBMCs were gently aspirated from the resulting interface and subsequently washed 2× with PBS by low speed centrifugation. The mononuclear cells were counted, viability was determined by Trypan Blue dye exclusion and the cells were resuspended in RPMI 1640 medium supplemented with 15% FBS (heat inactivated), 2 mM L-glutamine, 100 U/mL penicillin, 100 μg/mL streptomycin, and 10 μg/mL gentamycin with 20 U/mL recombinant IL-2 (R&D Systems, Minneapolis, Minn.). […]
Human peripheral blood mononuclear cells from a minimum of two donors, that have been stimulated with PHS- and IL-2, were counted and their viability was determined by Trypan Blue dye exclusion and mixed in equal rations. Pooled donors were used to minimize the variability observed between individual donors, which results from quantitative and qualitative differences in HIV infection, and overall response to the PHA and IL-2 of primary lymphocyte populations. […]

Lactobacillus gasseri = test: Lactobacilli growth; assay type: cell-based

Compound: Cc1ccc(C(=O)Nc2ccc(S(=O)(=O)O)c3cc(S(=O)(=O)O)cc(S(=O)(=O)O)c23)cc1NC(=O)c1cccc(NC(=O)Nc2cccc(C(=O)Nc3cc(C(=O)Nc4ccc(S(=O)(=O)O)c5cc(S(=O)(=O)O)cc(S(=O)(=O)O)c45)ccc3C)c2)c1 [Suramin, 8,8′-(carbonylbis(imino-3,1-phenylenecarbonylimino(4-methyl-3,1-phenylene)carbonylimino))bis-1,3,5-naphthalene trisulfonic acid]
- Potency, HIV-1 VBIA-IIIb (HIV-1 IIIB): High
- IC50 (HIV-1 IIIB; Human immunodeficiency virus 1, IIIB, MT2, 72 hours incubation, read-out: IC50 against IIIB, viral entry assay): 7.3 µg/mL (≈ 5.63 µM)
- Potency, HIV-1 ME-180 [1]: High
- IC50 ([1]; Human immunodeficiency virus 1, ME-180, CD4-independent epithelial cell transmission): 24.5 µg/mL (≈ 18.9 µM)
- effect of mucin on activity in ME-180 assay ([1]; addition of mucin): did not significantly reduce suramin's activity
- Potency, HIV-1 DC [2]: High
- IC50 ([2]; Human immunodeficiency virus 1, BAL, Dendritic cell, read-out: IC50 dendritic cell (DC)/T lymphocyte model): 17 µg/mL (≈ 13.1 µM)
- EC50 ([2]; DC infected with BaL cultured alone, read-out: EC50, Dendritic Cells (DC)): 56 ± 6 µg/mL (≈ 43.2 µM)
- EC50 ([2]; DC infected with BaL with autologous T lymphocytes 1:1, read-out: EC50, DC + T Cells (1:1)): 57.5 ± 5 µg/mL
- EC50 ([2]; DC infected with BaL with autologous T lymphocytes 1:10, read-out: EC50, DC + T Cells (1:10)): 17 ± 3 µg/mL
- Potency, HIV-1 Clin Isolates (HIV-1 clinical isolates): High
- IC50 (HIV-1 clinical isolates; Human immunodeficiency virus 1, PBMC, read-out: IC50 Clin Isolates): 14.6 µg/mL (≈ 11.3 µM)
- effect on growth of Lactobacillus gasseri (Lactobacillus gasseri; 5 mg/mL): no inhibitory effect
- growth of Lactobacillus gasseri, % of control (Lactobacillus gasseri; 5 mg/mL (highest concentration tested)): 107 % of control
- Potency, Lactobacilli (Doubling time) (Lactobacillus gasseri; max. concentration tested = 5 mg/mL): None
